Several values for one entry are separate records, joined by “and”; a condition that tells them apart may be missing. Equal values may be shown once. Oligonucleotides are written 5' to 3', each unit as a sugar letter and its base; * is a phosphorothioate linkage, no mark a phosphodiester; rarer units and linkages stand in square brackets, end groups in braces. Plain capitals give the bases only. d = 2'-deoxy (DNA)
B1: ESTA-1: ESTA-1 thioaptamer sequence (SEQ. ID. 32), IRdye 800-labelled, gold nanoparticle (FIG. 16) (nucleic acid)
DNA: CGCTCGGATCGATAAGCTTCGATCCCACTCTCCCGTTCACTTCTCCTCACGTCACGGATCCTCTAGAGCACTG
modifications: Thioaptamer, thioate positions not given here, IRdye 800 label, gold nanoparticle conjugate

What was measured:
CD44-HABD [1] = target: T1, CD44-HABD (Homo sapiens, UniProt P16070); assay: Filter binding assay of biotinylated XAs with CD44-HABD
T1 construct: DNA encoding CD44-HABD (amino acid residues 20-178) was synthesized and cloned into expression vector pET19b; made in house
T1 sequence (P16070 20-178): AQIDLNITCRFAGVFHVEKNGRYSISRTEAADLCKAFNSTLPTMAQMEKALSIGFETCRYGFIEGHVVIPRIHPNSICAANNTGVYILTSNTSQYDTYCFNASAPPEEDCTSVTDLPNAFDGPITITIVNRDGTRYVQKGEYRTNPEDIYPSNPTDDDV
Procedure: Filter binding assay. The equilibrium binding constants of selected XAs for CD44-HABD were determined by a filter binding assay. The biotinylated XAs (1 nM) were incubated with varying concentrations of CD44-HABD in 50 μL of 20 mM Tris, pH 8.0, 150 mM NaCl for 40 min at room temperature and then transferred to a 96-well dot-blot apparatus and filtered under vacuum onto nitrocellulose membranes, which retain the CD44-HABD along with any bound XAs. The amount of biotinylated XA retained at each spot was determined by chemiluminescent detection using the Chemiluminescent Nucleic Acid Detection Module (Thermo Scientific) following the manufacturer's instructions. The chemiluminescent signals were collected on a Chemimager (Alpha Innotech). Image analysis and quantification of spot intensities were performed using ImageJ (version 1.42q). Binding analysis was based on the spot intensities on the nitrocellulose membranes with subtraction of background spot intensity due to the buffer effect from all the data points. Saturation binding curves were generated by using GraphPad Prism with curve fits assuming a single binding site. The NH2 XA column lists KDs for XAs where X=amino-dU. The ADDA XA column lists KDs for XAs where X=ADDA-dU.
The equilibrium binding constants of the small constructs were determined by the filter binding assay. The derived equilibrium binding constants of the above small XA constructs are shown below in Table 4.

CD44-HABD [2] = target: T1, CD44-HABD; assay: 1H-NMR titration of CD44-HABD with ADDA (equilibrium dissociation constant); assay type: binding
Procedure: ADDA binding to CD44-HABD. CD44-HABD was prepared in the NMR buffer (20 mM Tris, 50 mM NaCl, 5% (v/v) D2O, pH 6.7). ADDA was dissolved in DMSO (1.4 M) as stock solution. The ADDA sample for NMR was prepared in the same buffer (20 mM Tris, 50 mM NaCl, 1.25 mM ADDA, 0.1% (v/v) DMSO, 5% (v/v) D2O, pH 6.7). CD44-HABD (27 μM) with various concentration of ADDA (14 μM, 25 μM, 50 μM, 250 μM and 1250 μM) was also prepared in the same buffer. The ^1H-NMR spectra of CD44-HABD only, ADDA only and CD44-HABD in presence of ADDA were obtained.
The equilibrium dissociation constant of ADDA to CD44-HABD was determined by ^1H-NMR.

[3] = tested on: human pancreatic cancer xenograph; assay: Near infrared imaging of IR800dye-labeled thioaptamer in mouse xenograft; assay type: in vivo; details: mouse with human pancreatic cancer xenograph
From the text: Use of Thioaptamers in vivo.

[4] = permonothioated full-length XA, X = ADDA-dU, read-out: KD (nM) ADDA XA
[5] = permonothioated full-length XA, X = amino-dU, read-out: KD (nM) NH2 XA

Molecule | Kd (CD44-HABD [1]; [4]) [nM] | Kd (CD44-HABD [1]; [5]) [nM] | other results
1 (DNA AAGGGAACCAAGGACACTAC; DNA, backbone not given here; tested as phosphodiester and as thiophosphate form) [Motif 1] |  |  | Kd (CD44-HABD [1]; truncated motif without X, phosphate backbone, read-out: Dissociation constant (nM), phosphoaptamer form): 10.3 ± 1.3 nM; Kd (CD44-HABD [1]; truncated motif without X, thiophosphate backbone, read-out: Dissociation constant (nM), thioaptamer form): 15 ± 2 nM
CC(=O)N[C@H]1[C@H]([C@H](O)[C@H](O)CO)OC(C(=O)O)=C[C@@H]1O [ADDA, N-acetyl-2,3-dehydro-2-deoxyneuraminic acid] |  |  | Kd (CD44-HABD [2]; 1H-NMR peak 7.7925 ppm, read-out: KD): 3080 µM; Kd (CD44-HABD [2]; 1H-NMR peak 7.9025 ppm, read-out: KD): 1440 µM; Kd (CD44-HABD [2]; 1H-NMR peak 7.9225 ppm, read-out: KD): 1720 µM; Kd (CD44-HABD [2]; 1H-NMR peak 7.9375 ppm, read-out: KD): 1920 µM; Kd (CD44-HABD [2]; 1H-NMR peak 7.9575 ppm, read-out: KD): 1710 µM; Kd (CD44-HABD [2]; 1H-NMR peak 7.9925 ppm, read-out: KD): 3430 µM; Kd (CD44-HABD [2]; average over the six selected 1H-NMR peaks, read-out: Average KD): 2220 µM and ~2000 µM
XA2: permonothioated X-aptamer to CD44-HABD, SEQ ID NO 13; X = amino-dU or ADDA-dU (DNA NGCAGATCTGCAAGGGAACCAAGGACACTA; phosphorothioate; amino-dU or ADDA-dU modified; (1)..(1) n = X = 5-(aminoethyl-3-acrylimido)- deoxyuridine) | 78.3 ± 18.1 | 55.5 ± 13.4 | 
XA3: permonothioated X-aptamer to CD44-HABD, SEQ ID NO 14; X = amino-dU or ADDA-dU (DNA CCAAGGCCTGCAAGGGAACCAAGTCCANTA; phosphorothioate; amino-dU or ADDA-dU modified; (28)..(28) n = X = 5-(aminoethyl-3-acrylimido)- deoxyuridine) | 140 ± 16.8 | 111 ± 18.5 | 
XA6: permonothioated X-aptamer to CD44-HABD, SEQ ID NO 17; X = amino-dU or ADDA-dU (DNA TTGGGGCCTGCAAGACGACCNAAACGANGA; phosphorothioate; amino-dU or ADDA-dU modified; (21)..(21) n = X = 5-(aminoethyl-3-acrylimido)- deoxyuridine; (28)..(28) n = X = 5-(aminoethyl-3-acrylimido)- deoxyuridine) | 150 ± 25.7 | 214 ± 31.6 | 
XA7: permonothioated X-aptamer to CD44-HABD, SEQ ID NO 18; X = amino-dU or ADDA-dU (DNA NNAAGACGCANTAANGAACCAAGGACGTGA; phosphorothioate; amino-dU or ADDA-dU modified; (1)..(2) n = X = 5-(aminoethyl-3-acrylimido)- deoxyuridine; (11)..(11) n = X = 5-(aminoethyl-3-acrylimido)- deoxyuridine; (15)..(15) n = X = 5-(aminoethyl-3-acrylimido)- deoxyuridine) | 116 ± 20.7 | 306 ± 69.3 | 
XA8: permonothioated X-aptamer to CD44-HABD, SEQ ID NO 19; X = amino-dU or ADDA-dU (DNA CCAAGATCNGNAAGGTANCCGGGGACNG; phosphorothioate; amino-dU or ADDA-dU modified; (9)..(9) n = X = 5-(aminoethyl-3-acrylimido)- deoxyuridine; (11)..(11) n = X = 5-(aminoethyl-3-acrylimido)- deoxyuridine; (18)..(18) n = X = 5-(aminoethyl-3-acrylimido)- deoxyuridine; (27)..(27) n = X = 5-(aminoethyl-3-acrylimido)- deoxyuridine) | 274 ± 54.3 | 463 ± 82.4 | 
XA10: permonothioated X-aptamer to CD44-HABD, SEQ ID NO 21; X = amino-dU or ADDA-dU (DNA dT*dT*dG*dG*dG*dG*dC*dC*dC*dA*dG*dT*dA*dG*dG*dT*dA*dA*dC*dC*dG*dG*dG*dG*dA*dC*dA*dG; further chemistry not given here) |  | 450 ± 180 | 
XA11: permonothioated X-aptamer to CD44-HABD, SEQ ID NO 22; X = amino-dU or ADDA-dU (DNA TTGGGACGTAAGTAANGGGGGACANGA; phosphorothioate; amino-dU or ADDA-dU modified; (16)..(16) n = X = 5-(aminoethyl-3-acrylimido)- deoxyuridine; (25)..(25) n = X = 5-(aminoethyl-3-acrylimido)- deoxyuridine) | 1090 ± 390 | 846 ± 151 | 
XA12: permonothioated X-aptamer to CD44-HABD, SEQ ID NO 23; X = amino-dU or ADDA-dU (DNA NNAAGGCCNGNTAAANGATATCCACTA; phosphorothioate; amino-dU or ADDA-dU modified; (1)..(2) n = X = 5-(aminoethyl-3-acrylimido)- deoxyuridine; (9)..(9) n = X = 5-(aminoethyl-3-acrylimido)- deoxyuridine; (11)..(11) n = X = 5-(aminoethyl-3-acrylimido)- deoxyuridine; (16)..(16) n = X = 5-(aminoethyl-3-acrylimido)- deoxyuridine) | 879 ± 135 | 963 ± 183 | 
XA13: permonothioated X-aptamer to CD44-HABD, SEQ ID NO 24; X = amino-dU or ADDA-dU (DNA NGCAGATCTGCAAGGGAAAGATAGACACAG; phosphorothioate; amino-dU or ADDA-dU modified; (1)..(1) n = X = 5-(aminoethyl-3-acrylimido)- deoxyuridine) | 312 ± 68.5 | 1380 ± 237 | 
B1 |  |  | accumulation in tumor (near infrared image) [3]: accumulates in the tumor
